Test results taken from patent US7615361B2, “Toxicity screening methods” (Ceetox, Inc., priority 2006, dated 2009).

Columns and labels:
[1] = tested on: BNP; experiment: bDNA analysis of mRNA in rat cardiomyocytes; format: cell-based; conditions: rat cardiomyocytes, 1, 3, 6 and 24 hours
Excerpt: (§1) Hypertrophy of the heart ventricular myocytes is regulated by a complex series of intracellular signaling processes involving angiotensin receptors and a series of down stream gene expression changes (Li et al. 2006). Endothelin-1 (ET-1) induces hypertrophy of cardiomyocytes in vivo and in vitro. The mechanism of ET-1-induced hypertrophy consists in the activation of phospholipase C, protein kinase C, extra cellular signal regulated kinase (ERK) and upregulation of cfos and cjun.
(§2) Expression of ANP and BNP mRNA levels was determined by bDNA analysis of mRNA. ET-1 at 0.1 μM was included as a positive control.
(§3) […] Plates were mixed using a DPC 5 Micromix plate shaker at 37° C. for 15-30 minutes to ensure complete lysis of cells. Cell lysis was confirmed using a Nikon inverted microscope. Plates were stored at −80° C. until further analysis.
(§4) bDNA Analysis (Day 1): All solutions were prepared fresh on the day of analysis. Quantigene® bDNA kit components were brought to room temperature prior to use. Chemicals not supplied by Genospectra were obtained from Sigma-Aldrich.
(§5) On the day of analysis, Target Probe Sets were prepared for probe gene sets by adding 25 μL of each probe set component (CE, LE, BL) to 425 μL stock lysis solution using the following probe set concentrations: CE (50 fmol/μL), LE (200 fmol/μL), BL (100 fmol/μL).
(§6) Cell lysis plates were removed from freezer storage and thawed. […] Next, 10 μL of the appropriate Target Probe Set (PS2) was added to each appropriate well of the Capture Plate. Plates were tightly sealed using a plate sealer and incubated at 53° C. for 16-20 hr (overnight).
(§7) bDNA Analysis (Day 2): Wash buffer was prepared in ultra-pure water using 0.1×Saline-Sodium Citrate (SSC) and 0.03% Lithium Lauryl Sulfate (LLS). Amplifier working solution was prepared by adding 10 μL Amplifier to 10 mL Amplifier Diluent per plate.
(§8) Plates were removed from incubator and washed three times with 300 μL wash buffer. Wash buffer was completely removed from plates by aspiration and 100 μL Amplifier working solution was added to each well. Plates were sealed and incubated at 46° C. for 1 hr.
(§9) Label Probe working solution was prepared by adding 10 μL Label Probe to 10 mL Label Probe Diluent per plate. […] Plates were sealed and incubated at 46° C. for 1 hr.

[2] = tested on: ANP; experiment: bDNA analysis of mRNA in rat cardiomyocytes; format: cell-based; conditions: rat cardiomyocytes, 1, 3, 6 and 24 hours
Excerpt: as §1, §2, §3, §4, §5, §6, §7, §8, §9

[3] = tested on: SK-MEL28 cells; experiment: BrdU incorporation; format: cell-based, human; conditions: SK-MEL28, 24 hr exposure to 5 and 10 μM
Description: Bromodexoyurine (BrDU) Incorporation: This assay was used to monitor cumulative changes in DNA replication. The assay uses the thymidine analog BrdU to measure S-phase of cell replication and is considered to be the Gold Standard for cell proliferation. BrDU (10 μM) was included in the test compound dosing solution to allow BrDU incorporation during cell replication. BrDU was included for the duration of the exposure, 24 hr. After completion of exposure period, the cells were fixed and labeled with mouse monoclonal anti-BrDU (FITC). Fluorescence was measured using a Packard Fusion or equivalent plate reader at 485 nm excitation and 530 nm emission.
Bromodexoyurine (BrDU) Incorporation: After incubation, the test compound/BrDU solution was removed and cells were fixed. A solution containing mouse monoclonal anti-BrDU (FITC) was added and fluorescence was measured. Data were collected as relative fluorescent units (RFU). The blank was subtracted from the final well RFU. It represents the average of the first and last columns which contain no cells on that particular plate. The controls are untreated cells allowed to grow on the same plate. The compounds are represented by several separate RFU data points for each of the tested concentrations. The percent change relative to controls was calculated by dividing the average RFU by the control cell RFU and multiplying by 100.
Experiments were also conducted to verify the relationship between exposure time and the observed cytostatic effects of the test compound. An additional assay was used to monitor cumulative change in DNA replication. The assay uses the thymidine analog BrdU to measure S-phase of cell replication and is considered to be the Gold Standard for cell proliferation. […] The BrdU assay paralleled the MTT and propidium iodide assays. The apparent lower sensitivity of the BrdU assay is a reflection of the experimental design not the assay. BrdU data represents a cumulative effect from the beginning of exposure while the other assays are measuring one is remaining at the end of either the 24 hr or 72 hr exposure period. […] There was a trend toward increasing activity in caspase-3, a marker for cell apoptosis.

[4] = tested on: SK-MEL28 cells; experiment: Membrane lipid peroxidation (8-isoprostane ELISA)
Description: Lipid Peroxidation Measured as 8-Isoprostane (8-ISO): 8-ISO levels were determined using an ELISA. 8-ISO is a member of a family of eicosanoids produced non-enzymatically by random oxidation of tissue phospholipids by oxygen radicals. Therefore, an increase in 8-ISO is an indirect measure of increased lipid peroxidation (Vacchiano and Tempel, 1994). At the end of the exposure period, plates were either analyzed immediately or stored at −80° C. until needed for analysis. Color development, which is […] to the amount of 8-ISO present in the sample, was read on a Packard Fusion or equivalent plate reader at 415 nm.
Lipid Peroxidation Measured as 8-Isoprostane (8-ISO): Background absorbance produced from Ellman's reagent is subtracted from all wells. Non-specific binding is subtracted from the maximum binding wells to give a corrected maximum binding expressed as Bo. The percent of bound (B) relative to maximum binding capacity (Bo) for all unknown samples and for standards was determined an expressed as (% B/Bo). The % B/Bo for standards was plotted against the log of 8-ISO added to yield the final standard curve. This curve was used to convert % B/Bo to pg 8-ISO/mL of sample.
The test compound consisted of two parts mixed in a constant ratio of 5:1. The final test mixture consisted of Test mix 1 and Test mix 2, which were received as frozen solutions. The test mixture was tested in a ratio of 5:1 COMP A in five different cell types which included the following: SK-MEL28, human hepatocytes, HUVEC, C32, and NHEM cells. Cells were seeded into 96-well plates and cultured in medium containing 10% bovine serum. […]
Experimental Protocol: The test compounds were shipped on dry ice for testing. The compounds were stored frozen at −80° C. until needed. Dosing solutions were prepared in complete culture medium. SK-MEL28, human hepatocytes, HUVEC, C32, and NHEM cells were used as the test systems. Cells were seeded into 96-well plates and allowed to equilibrate for approximately 48 hr. Following the equilibration period the cells were exposed to the test compound mix at concentrations of COMP A (μg/mL)=(250:50), (125:25), (25:12.5), (12.5:2.5), (2.5:1.25), (1.25:0.25), and (0.25:0.05). […] Following the exposure period, the cells or their supernatant (culture medium) were analyzed for changes in cell proliferation, membrane leakage, mitochondrial function, oxidative stress, and apoptosis. The resultant exposure concentration response curves were graphed and analyzed for determining the concentration that produced a half maximal response or TC50.

[5] = SK-MEL28, 24 HR, COMP A (LOW) / controls #2
[6] = SK-MEL28, 72 HR, COMP A (LOW) / controls #2

SMILES	effect on BNP expression [1]	effect on ANP expression [2]	Cell proliferation as measured by the S-phase marker BrdU [3]	Membrane Lipid Peroxidation ([4]; SK-MEL28, 24 HR)	Membrane Lipid Peroxidation [4, 5]	Membrane Lipid Peroxidation [4, 6]
COc1cccc2c1C(=O)c1c(O)c3c(c(O)c1C2=O)C[C@@](O)(C(=O)CO)C[C@@H]3O[C@H]1C[C@H](N)[C@H](O)[C@H](C)O1 [ADRIAMYCIN, Adriamycin]	no effect	no effect				
CC[C@@]1(O)C(=O)OCc2c1cc1n(c2=O)Cc2cc3ccccc3nc2-1 [CAMPTOTHECIN, Camptothecin]			undetectable	0	0	1 (1 = Modest increase with maximum values ≦15 pg/mL)
C=C(C)[C@H]1Cc2c(ccc3c2O[C@@H]2COc4cc(OC)c(OC)cc4[C@@H]2C3=O)O1 [ROTENONE, Rotenone]				3 (3 = Concentration related increase with a maximum value ≧30 pg/mL)	2 (2 = Concentration related increase with maximum values ≧15 pg/mL)	3 (3 = Concentration related increase with a maximum value ≧30 pg/mL)
